The values below are quoted from earlier work in patent US20240082153A1, “IVERMECTIN FORMULATION IN ORAL SOLUTION” (PROCAPS S.A., priority 2020, published 2024).

In one data set the test system is SARS-CoV-2. The settings on record: in vitro, after 48 hours.

Ivermectin: the solubility in water entry is “practically insoluble in water”. Besides, in the data set with SARS-CoV-2, the “reduction in viral RNA” value is given as “approximately 5,000 fold”.
